By fold induction is commonly meant the signal under treatment as a multiple of the control signal.

Assay [1] concerns HDAC3 (gdf11 reporter gene). Description: HDAC subtype reporter gene assay, gdf11-promoter luciferase in HeLa cells. Format: cell-based. The conditions noted are these: Homo sapiens, M-HeLa, read-out: % of SAHA Response for HDAC3 at 10 μM (gdf11 reporter gene), 24 hours. Here is the method:
Measurement of inhibition of HDAC subtypes activity in cells by reporter gene assay: HDAC subtype selectivity inhibition assay of tested compounds was carried out by several reporter gene assays experiments. Briefly, HeLa cells were seeded in 96-well plates the day before transfection to give a confluence of 50-80%. Cells were transfected with one of reporter gene plasmids containing a promoter sequences or response elements upstream of a luciferase gene construct using FuGene6 transfection reagent according to the manufacturer's instructions (Roche). The promoters or response elements including p21-promoter, gdf11-promoter, MEF-binding element (MEF2), Nur77-promoter were fused upstream to the luciferase gene reporter construct. For normalizing the transfection efficiency, a GFP expression plasmid was cotransfected. Cells were allowed to express protein for 24 hours followed by addition of individual compounds or the vehicle (DMSO). 24 hours later, the cells were harvested and the luciferase assays were performed using the luciferase assay kit according to the manufacturer's instructions (Promega). To normalize the data from the luciferase assays, GFP activity from transfected cells was measured in a microtiter-plate reading fluorimeter capable of excitation at a wavelength at 485 nm and detection of emitted light at 527 nm.
Background: In a reporter assay the amount or activity of a reporter protein is the signal.

For assay [2], the target named is T1, HDAC6 (α-tubulin acetylation) (Homo sapiens, UniProt Q9UBN7).
T1 construct: endogenous in cells; host or cells: HeLa
T1 sequence (Q9UBN7 1-1215): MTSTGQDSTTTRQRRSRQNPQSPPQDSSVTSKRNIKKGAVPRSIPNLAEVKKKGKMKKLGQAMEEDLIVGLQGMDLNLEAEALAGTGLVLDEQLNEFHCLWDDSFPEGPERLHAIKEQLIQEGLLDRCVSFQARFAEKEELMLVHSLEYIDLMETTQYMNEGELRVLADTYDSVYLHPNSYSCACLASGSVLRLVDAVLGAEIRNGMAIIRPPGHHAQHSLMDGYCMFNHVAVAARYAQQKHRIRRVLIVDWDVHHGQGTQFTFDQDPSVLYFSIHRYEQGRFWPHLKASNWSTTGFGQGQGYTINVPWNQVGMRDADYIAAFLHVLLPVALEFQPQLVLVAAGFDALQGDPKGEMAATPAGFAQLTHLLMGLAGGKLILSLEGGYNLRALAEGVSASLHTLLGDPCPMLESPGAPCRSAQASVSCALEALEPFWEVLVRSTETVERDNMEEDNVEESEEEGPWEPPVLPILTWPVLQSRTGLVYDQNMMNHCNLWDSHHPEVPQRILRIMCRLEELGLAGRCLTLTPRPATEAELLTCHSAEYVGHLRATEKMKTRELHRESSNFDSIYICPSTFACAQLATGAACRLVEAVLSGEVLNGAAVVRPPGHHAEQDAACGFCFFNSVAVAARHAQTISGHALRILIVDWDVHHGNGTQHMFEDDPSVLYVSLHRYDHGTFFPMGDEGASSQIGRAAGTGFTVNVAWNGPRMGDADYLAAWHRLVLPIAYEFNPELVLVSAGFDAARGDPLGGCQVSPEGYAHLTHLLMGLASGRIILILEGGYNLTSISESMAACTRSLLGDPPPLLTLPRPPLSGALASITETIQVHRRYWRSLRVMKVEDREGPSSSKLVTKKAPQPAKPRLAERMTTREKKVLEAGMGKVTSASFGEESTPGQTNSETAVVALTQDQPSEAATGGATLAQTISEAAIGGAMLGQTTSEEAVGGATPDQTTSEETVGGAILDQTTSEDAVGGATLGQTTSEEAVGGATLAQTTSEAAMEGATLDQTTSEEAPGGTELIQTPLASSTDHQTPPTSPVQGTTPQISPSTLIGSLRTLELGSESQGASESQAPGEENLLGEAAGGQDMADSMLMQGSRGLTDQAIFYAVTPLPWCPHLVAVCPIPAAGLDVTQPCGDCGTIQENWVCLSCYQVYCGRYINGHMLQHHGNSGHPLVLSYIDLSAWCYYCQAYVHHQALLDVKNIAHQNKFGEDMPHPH
Description: ELISA assay of acetylation of α-tubulin in HeLa cells. The conditions noted are these: M-HeLa, 24 hours. Format: cell-based. Here is the method:
Measurement of acetylation activity in cells on substrates:
ELISA assay of acetylation of α-tubulin
This assay is used to measure in vivo inhibition of HDAC6 in a cytoblot assay. Materials and Reagent: • 1. 24-well tissue culture • 2. DMEM Medium containing 10% FBS • 3. 96-well white plate • 4. HeLa cell line • 5. M-PER Mammalian Protein Extraction Reagent (Pierce) • 6. Bradford assay reagent • 7. Anti-acetyl-tubulin (Upstate) • 8. HRP-labeled anti-mouse IgG (Upstate) • 9. Coating Buffer: 15 mM Na2CO3, 35 mM NaHCO3 (pH 9.6) • 10. 10×PBS: 0.58 M Na2HPO4, 0.17M NaH2PO4, 0.68M NaCl (pH 7.4) • 11. Wash Buffer:1×PBS containing 0.05% Tween-20 (PBST) • 12. Blocking Buffer:10 mg/ml bocine serum albumin (BSA) in PBS • 13. Antibody Dilution Buffer: 5 mg/ml BSA in PBST • 14. Enhanced chemiluminescence (ECL) (Amersham)
Procedure for performing the assay in 96-well plate: • 1. HeLa cells were seeded at a density of 60000 cells/500 μl/well in 24-well plate and incubated at 37° C. for 24 hours. • 2. Compounds were added and incubated for 24 hours at 37° C. • 3. Culture medium was removed, then washes the cells twice with ice-cold PBS. • 4. Add 100 μl/well of Protein Extraction Reagent and gently shake the mixture for 5 minutes. • 5. Collect the lysate to a 96-well plate respectively. Determine the concentration of protein by Bradford assay. • 6. Coat the wells of a 96-well white plate with 100 μl/well of 2.5 μg whole cell protein in Coating Buffer by incubating overnight at 4° C. • 7. Discard the uncoated proteins and wash the coated wells three times with 200 μl/well of PBST. • 8. Block coated wells by incubating the plate with 200 μl/well of Blocking Buffer for 1 hour at 37° C. • 9. Wells were aspirated and washed three times with 200 μl/well of PBST. • 10. After aspirating, 50 μl/well of Antibody Dilution Buffer containing anti-Ac-tubulin (1:1000) were added to each well and incubated for 2 hour at 37° C. • 11. Wells were aspirated and washed three times with 200 μl/well of PBST. • 12. 50 μl/well of Antibody Dilution Buffer containing HRP-labeled anti-mouse IgG (1:2000) were added to each well and incubated for 2 hour at 37° C. • 13. Wells were aspirated and washed three times with 200 μl/well of PBST. • 14. Wells were washed three times with 200 μl/well of purified water. • 15. Add 50 μl/well of ECL mixture, then read the plates on the plate reader.
For orientation: An ELISA detects its analyte on a solid surface through an enzyme-linked reagent.

Consider `Nc1ccccc1NC(=O)CCCCCNC(=O)c1cccc(/C=C2\C(=O)Nc3ccc(F)cc32)c1` [Example 44, 6-(3-((5-fluoro-2-oxoindolin-3-ylidene)methyl)benzamido)-N-(2-aminophenyl)hexanamide], for which the Emax at 10 µM in assay [1] was 48%. In assay [2], this compound gave a fold induction at 10 µM of 2.66.

In the case of `Nc1cc(F)ccc1NC(=O)CCCCCNC(=O)c1cccc(/C=C2\C(=O)Nc3ccc(F)cc32)c1` [Example 45, 6-(3-((5-fluoro-2-oxoindolin-3-ylidene)methyl)benzamido)-N-(2-amino-4-fluorophenyl)hexanamide], in assay [1], the Emax at 10 µM was determined as 12%. The same compound showed a fold induction at 10 µM in assay [2] of 1.64.

`O=C(CCCCCNC(=O)c1cccc(/C=C2\C(=O)Nc3ccc(F)cc32)c1)NO` [Example 46, 6-(3-((5-fluoro-2-oxoindolin-3-ylidene)methyl)benzamido)-N-hydroxyhexanamide]: the Emax at 10 µM in assay [1] is 10%. For the same compound, the fold induction at 10 µM in assay [2] turned out to be 2.07.

With `Nc1ccccc1NC(=O)CCCCNC(=O)c1cccc(/C=C2\C(=O)Nc3ccc(F)cc32)c1` [Example 49, 5-(3-((5-fluoro-2-oxoindolin-3-ylidene)methyl)benzamido)-N-(2-aminophenyl)pentanamide], the Emax at 10 µM in assay [1] worked out at 11%. In assay [2], this compound returned a fold induction at 10 µM of 2.39.

For `Nc1cc(F)ccc1NC(=O)CCCCNC(=O)c1cccc(/C=C2\C(=O)Nc3ccc(F)cc32)c1` [Example 50, 5-(3-((5-fluoro-2-oxoindolin-3-ylidene)methyl)benzamido)-N-(2-amino-4-fluorophenyl)pentanamide], the Emax at 10 µM in assay [1] worked out at 4%. Moreover, the fold induction at 10 µM in assay [2] worked out at 1.97.

As for `O=C(CCCCNC(=O)c1cccc(/C=C2\C(=O)Nc3ccc(F)cc32)c1)NO` [Example 51, 5-(3-((5-fluoro-2-oxoindolin-3-ylidene)methyl)benzamido)-N-hydroxypentanamide], in assay [1], the Emax at 10 µM is 12%. Moreover, the fold induction at 10 µM in assay [2] was found to be 1.97.

Take `Nc1ccccc1NC(=O)CCCCCCCNC(=O)c1cccc(/C=C2\C(=O)Nc3ccc(F)cc32)c1` [Example 54, 8-(3-((5-fluoro-2-oxoindolin-3-ylidene)methyl)benzamido)-N-(2-aminophenyl)octanamide]: in assay [1], the Emax at 10 µM is 52%. This compound also showed a fold induction at 10 µM in assay [2] of 2.91.

Regarding `Nc1cc(F)ccc1NC(=O)CCCCCCCNC(=O)c1cccc(/C=C2\C(=O)Nc3ccc(F)cc32)c1` [Example 55, 8-(3-((5-fluoro-2-oxoindolin-3-ylidene)methyl)benzamido)-N-(2-amino-4-fluorophenyl)octanamide], the Emax at 10 µM in assay [1] worked out at 6%. This compound also had a fold induction at 10 µM in assay [2] of 1.49.

Take `O=C(CCCCCCCNC(=O)c1cccc(/C=C2\C(=O)Nc3ccc(F)cc32)c1)NO` [Example 56, 8-(3-((5-fluoro-2-oxoindolin-3-ylidene)methyl)benzamido)-N-hydroxyoctanamide]: the Emax at 10 µM in assay [1] turned out to be 56%. In assay [2], the fold induction at 10 µM was determined as 2.66.

For the origin of these results see patent publication US7863315B2, “2-indolinone derivatives as selective histone deacetylase inhibitors” (Shenzhen Chipscreen Biosciences, Ltd., priority 2008, dated 2011).
